Measured values from publication PMC7897990, “TriTOX: A novel Trichomonas vaginalis assay platform for high-throughput screening of compound libraries” (International Journal for Parasitology: Drugs and Drug …, 2021).
Like-named read-outs stand apart in the source and are kept apart here.

Key:
[1] = test system: nontumorigenic neonatal foreskin fibroblast (NFF) cell line
[2] = test system: Trichomonas vaginalis G3 trophozoites; conditions: for T.vaginalis_Absorbance_Rep1: replicate 1, raw absorbance; for T.vaginalis_Absorbance_Rep2: replicate 2, raw absorbance
[3] = NFF_NS1 screen at 5 µg/mL, NFF cells
[4] = parasite screen at 1 µg/mL, replicate 1
[5] = parasite screen at 1 µg/mL, replicate 2
[6] = HTS, parasite screen at 1 µg/mL, replicate 1
[7] = HTS, parasite screen at 1 µg/mL
[8] = HTS, parasite screen at 1 µg/mL, replicate 2
[9] = replicate 1, parasite screen at 1 µg/mL
[10] = replicate 2, parasite screen at 1 µg/mL
[11] = NFF fibroblast screen at 5 µg/mL, A = active, I = inactive

## COC1=C(N)C(=O)c2nc(-c3nc(C(=O)O)c(C)c(-c4ccc(OC)c(OC)c4O)c3N)ccc2C1=O [BIA-S1107]
[1]; [3]
  NFF_Activity: A (active (A) compounds having >25% inhibitory activity)
[2]; [4]
  T.vaginalis_%inb_Rep1: 76.72%
[2]; [5]
  T.vaginalis_%inb_Rep2: 90.80%

## COc1c(O)c2c(=O)cc3c4c5c(cc(=O)c6c(O)c(OC)c(C[C@H](C)OC(C)=O)c(c(c1C[C@H](C)OC(C)=O)c24)c65)OCO3 [Diacetylcercosporin]
[1]; NFF_NS1 screen at 5 µg/mL
  NFF_Activity: A (active (A) compounds having >25% inhibitory activity)
[2]; [6]
  T.vaginalis_%inb_Rep1: 12.65%
[2]; [7]
  T.vaginalis_Absorbance_Rep1: 0.944
  T.vaginalis_Absorbance_Rep2: 0.821
[2]; [8]
  T.vaginalis_%inb_Rep2: 14.53%

## COC(=O)C1=CO[C@@H](C)[C@@H]2CN3CCc4c([nH]c5cc(OC)c(OC)cc45)[C@@H]3C[C@H]12 [BIA-I1957]
[1]; NFF cells, screen at 5 µg/mL
  NFF_Activity: I (otherwise these were reported as inactive (I))
[2]; [9]
  T.vaginalis_%inb_Rep1: 9.33%
[2]; [10]
  T.vaginalis_%inb_Rep2: 14.44%

## C=C1CCOC2(C(O)C(C)(O)CO)NC(=O)C1(O)NC2=O (stereo not shown) [BIA-B1367]
[1]; NFF_NS1 screen 5 µg/mL, single concentration
  NFF_Activity: I (otherwise these were reported as inactive (I))
[2]; HTS single concentration, parasite screen 1 µg/mL, replicate 1
  T.vaginalis_%inb_Rep1: 15.02%
[2]; HTS single concentration, parasite screen 1 µg/mL, replicate 2
  T.vaginalis_%inb_Rep2: 15.26%

## CCOCCO[C@@H]1CC[C@@H](C[C@@H](C)[C@@H]2CC(=O)[C@H](C)/C=C(\C)[C@@H](O)[C@@H](OC)C(=O)[C@H](C)C[C@H](C)/C=C/C=C/C=C(\C)[C@@H](OC)C[C@@H]3CC[C@@H](C)[C@@](O)(O3)C(=O)C(=O)N3CCCC[C@H]3C(=O)O2)C[C@H]1OC [Umirolimus]
[1]; [11]
  NFF_Activity: I (otherwise these were reported as inactive (I))
[2]; [6]
  T.vaginalis_%inb_Rep1: 9.81%
[2]; [8]
  T.vaginalis_%inb_Rep2: 13.47%

## O=c1cc(CO)occ1O [BIA-K1696]
[1]; NFF cells, screen at 5 µg/mL
  NFF_Activity: I (otherwise these were reported as inactive (I))
[2]; [9]
  T.vaginalis_%inb_Rep1: 13.34%
[2]; [10]
  T.vaginalis_%inb_Rep2: 13.98%

## COc1c(O)cc2cc(C)oc(=O)c2c1O [BIA-R1077]
[1]; [3]
  NFF_Activity: I (otherwise these were reported as inactive (I))
[2]; [4]
  T.vaginalis_%inb_Rep1: 14.76%
[2]; [5]
  T.vaginalis_%inb_Rep2: 13.92%

## Cc1cc(O)c(C)c(O)c1C(=O)O [BIA-M1661]
[1]; NFF cells, screen at 5 µg/mL
  NFF_Activity: A (active (A) compounds having >25% inhibitory activity)
[2]; [9]
  T.vaginalis_%inb_Rep1: 12.78%
[2]; [10]
  T.vaginalis_%inb_Rep2: 12.06%

## Orfamide A
[1]; NFF fibroblasts, single concentration 5 µg/mL
  NFF_Activity: I (otherwise these were reported as inactive (I))
[2]; HTS replicate 1, parasite screen 1 µg/mL
  T.vaginalis_%inb_Rep1: 9.99%
[2]; HTS replicate 2, parasite screen 1 µg/mL
  T.vaginalis_%inb_Rep2: 10.90%

## C=C1[C@@H](C)[C@H]2[C@H](Cc3ccccc3)NC(=O)[C@]23[C@H](OC(C)=O)[C@@H]2O[C@H]2[C@@](C)(O)C(=O)[C@@H](C)C/C=C\[C@H]3[C@@H]1O [Epoxycytochalasin D, 19,20-]
[1]; NFF_NS1 screen at 5 µg/mL
  NFF_Activity: I (otherwise these were reported as inactive (I))
[2]; [6]
  T.vaginalis_%inb_Rep1: 12.71%
[2]; [7]
  T.vaginalis_Absorbance_Rep1: 0.945
  T.vaginalis_Absorbance_Rep2: 0.789
[2]; [8]
  T.vaginalis_%inb_Rep2: 12.22%

## CO[C@H]1/C=C\C=C(\C)C[C@H](C)[C@H](O)[C@H](C)/C=C(C)\C=C(\C)C(=O)O[C@@H]1[C@@H](C)[C@@H](O)[C@H](C)[C@@]1(O)C[C@@H](OC(=O)/C=C/C(=O)O)[C@H](C)[C@@H](C(C)C)O1 [TS 155-2]
[1]; [11]
  NFF_Activity: I (otherwise these were reported as inactive (I))
[2]; [6]
  T.vaginalis_%inb_Rep1: 71.89%
[2]; [8]
  T.vaginalis_%inb_Rep2: 89.46%

## CN[C@@H]1C[C@H]2O[C@@](C)([C@@H]1OC)n1c3ccccc3c3c4c(c5c6ccccc6n2c5c31)C(=O)N[C@H]4O [UCN-01]
[1]; [11]
  NFF_Activity: A (active (A) compounds having >25% inhibitory activity)
[2]; [6]
  T.vaginalis_%inb_Rep1: 11.33%
[2]; [8]
  T.vaginalis_%inb_Rep2: 13.65%

## O=C1C=CC(=O)c2c(O)cccc21 [BIA-J1739]
[1]; NFF cells, screen at 5 µg/mL
  NFF_Activity: A (active (A) compounds having >25% inhibitory activity)
[2]; [9]
  T.vaginalis_%inb_Rep1: 12.73%
[2]; [10]
  T.vaginalis_%inb_Rep2: 10.78%

## CC1=C[C@H]2O[C@@H]3[C@H](O)[C@@H](O)[C@](C)([C@@]2(CO)C[C@@H]1OC(=O)CC(C)C)[C@]31CO1 [BIA-T1934]
[1]; [3]
  NFF_Activity: I (otherwise these were reported as inactive (I))
[2]; [4]
  T.vaginalis_%inb_Rep1: 10.70%
[2]; [5]
  T.vaginalis_%inb_Rep2: 12.37%
